In patent US10231463B2, “Food mass suitable for microwaving” (Chemische Fabrik Budenheim KG, priority 2013, dated 2019):

Tests used:
[1] = Pore volume by nitrogen gas adsorption (BJH method, BELSORP-mini II); format: physicochemical; settings: total pore volume Vp, nitrogen adsorption at 77.3 K
Source text: Determining the Pore Volume
The pore volume in accordance with the present invention is characterised by means of gas adsorption. The recording of physisorption isotherms (adsorption and desorption isotherms) of inert gas molecules at low temperatures is routinely used for determining solids parameters.
The BJH method provides an algorithm for the calculation of pore width distribution from nitrogen adsorption data on the assumption of a cylindrical pore geometry. In that respect consideration is given to the change in the adsorbed volume in the pores in dependence on the pore radius, wherein the pore radius distribution function is related as a relative value to the total pore volume. […] It is assumed that the entire pore system is filled with a capillary condensate.

[2] = Thawing and baking trials with puff pastry in a microwave oven; settings: for ΔT (temperature difference between crust temperature and crumb temperature): 2 parts by weight additive, puff pastry dough pieces; for Microwave activity: assessment scale from ΔT, puff pastry doughs
Description: A puff pastry from Veripan was used as the basic recipe.
2 parts by weight of microwave absorber were further added to the basic recipe.
Wheat flour, inverted sugar, emulsifier and optionally microwave absorber were put into a mixing container and mixed. The water and 20% of the vegetable fat were added and kneaded for 3 minutes at a low stage and for 5 minutes at a medium stage with a spiral kneader. The dough temperature was monitored. The target temperature was 18° C. After that the remaining vegetable fat was beaten into the dough. The dough was then folded at intervals each of 30 minutes in 4 working steps, more specifically 2 single and 2 double turns. They give by calculation 144 fat layers (margarine), divided into very thin dough and fat layers. Before processing the dough was stored in a cooled condition for 12 hours.
Unbaked puff pastry dough roundels without filling and pre-baked puff pastry dough pockets (hot pockets) with a tomato sauce filling were respectively subjected to microwave radiation as deep-frozen dough pieces in a microwave oven from Panasonic (see Example 2) for a predetermined period and with a predetermined microwave power. After a […] standing time the temperature of the dough piece was measured by means of a thermal imaging camera (Fluke Ti20) and evaluated.
Measurement value 1 (M1)=averaged crust temperature outside
Measurement value 2 (M2)=averaged crumb temperature in the interior of the dough piece.
Puff pastry dough roundel (PPD-RO): 440 watts; 200 seconds
Puff pastry dough hot pockets (PPD-HP): 600 watts; 300 seconds
Table 3 hereinafter reproduces the additives used, the temperature measurement values M1 and M2 and the corresponding temperature difference (ΔT) between crust temperature and crumb temperature of the dough piece.
Assessment of Microwave Activity in Puff Pastry Doughs 1: ΔT=>20° C.=very good 2: ΔT=15 to <20° C.=good 3: ΔT=<15° C.=no additional additive

[3] = Baking trials with ready-to-eat baking mixture (lemon cake) in a microwave oven; settings: for ΔT (temperature difference between crust temperature and crumb temperature): 2 parts by weight additive, 600 watts, 140 seconds; for Microwave activity: assessment scale from ΔT
Description: A ready-to-eat baking mixture for lemon cakes from […] was used as the basic recipe. […] Whole egg and sugar were put into a mixing container and mixed. The powder mixture of the composition (wheat flour, cooking salt and so forth) was slowly mixed in. Vegetable oil, flavouring substances and alcohol were then slowly added and mixing was effected for 12 minutes. After that baking raising agent was added and mixed at a medium stage for a further 2 minutes. After that the microwave absorber was mixed in, the mixer was switched off, and the material was tipped out and stored cool.

[4] = Thawing and baking trials with yeast-raised wheat frozen doughs in a microwave oven; settings: yeast-raised wheat frozen dough; for ΔT (temperature difference between crust temperature and crumb temperature): 2 parts by weight additive, 600 watts, 120 seconds; for Microwave activity: assessment scale from ΔT
Description: Dough Composition (Basic Recipe):
In addition 2 parts by weight of microwave absorber were added to the basic recipe.
• Mixing and kneading time: 3+2 minutes (the latter in a Stephan mixer) • Dough standing time: 20 minutes • Dough piece weight: 200 g • Cooking time of the dough pieces: 20 minutes • Freezing time: about 4 hours • Deep freeze storage time: about 2 days Thawing and Baking Trials:
The deep-frozen dough pieces were exposed to microwave radiation in a microwave oven from Panasonic (model: NN-GD560M—inverter microwave) for a predetermined period of 120 seconds and with a predetermined microwave power of 600 watts (according to the device indication). After 2 minutes of standing time the temperature of the crust and the crumb was measured by means of an infrared temperature sensor at various measurement points on the dough piece.
Measurement value 1 (M1)=average crust temperature outside
Measurement value 2 (M2)=average crumb temperature in the interior of the dough piece.

| Compound | Pore Volume [1] | ΔT (temperature difference between crust temperature and crumb temperature) [2] | Microwave activity [2] | ΔT (temperature difference between crust temperature and crumb temperature) [3] | Microwave activity [3] | ΔT (temperature difference between crust temperature and crumb temperature) [4] | Microwave activity [4] |
| --- | --- | --- | --- | --- | --- | --- | --- |
| O=P([O-])([O-])OP(=O)([O-])[O-].O=P([O-])([O-])OP(=O)([O-])[O-].O=P([O-])([O-])OP(=O)([O-])[O-].[Fe+3].[Fe+3].[Fe+3].[Fe+3] [FePP, Iron-III-pyrophosphate] | 30 10^−3 cm^3/g | 16.9 °C | 2 (ΔT=15 to <20° C.=good) | 26.4 °C | 1 (ΔT=>20° C.=very good) | 42.6 °C | 1 (ΔT=>40° C.=very good) |
| [Mg+2].[OH-].[OH-] [Mg(OH)2, Magnesium hydroxide] | 18.2 10^−3 cm^3/g | – | – | – | – | 62.5 °C | 1 (ΔT=>40° C.=very good) |
| O=P([O-])(O)O.O=P([O-])(O)O.[Mg+2] [MSPA, Monomagnesium phosphate anhydrate] | 4.5 10^−3 cm^3/g | – | – | – | – | 41.1 °C | 1 (ΔT=>40° C.=very good) |
| O=P([O-])([O-])OP(=O)([O-])[O-].[Zn+2].[Zn+2] [ZPP, Zinc pyrophosphate] | 10.5 10^−3 cm^3/g | – | – | – | – | 37.9 °C | 2 (ΔT=25 to 40° C.=good) |
| O.O.O.O=P([O-])([O-])O.[Mg+2] [DMP, Dimagnesium phosphate trihydrate] | 6.0 10^−3 cm^3/g | – | – | – | – | 41.9 °C | 1 (ΔT=>40° C.=very good) |
| [Cl-].[Cl-].[Mg+2] [MgCl2(V), Magnesium chloride, reference compound] | 2.0 10^−3 cm^3/g | – | – | – | – | 19.8 °C | 3 (ΔT=<25° C.=no additional activity) |
| O.O.O=P([O-])([O-])O.[Ca+2] [DCPD, Dicalcium phosphate dihydrate] | 5.3 10^−3 cm^3/g | – | – | – | – | 26.2 °C | 2 (ΔT=25 to 40° C.=good) |
| O=P([O-])([O-])[O-].[Fe+3] [FeOP, Iron-III-orthophosphate] | 19 10^−3 cm^3/g | 15.1 °C | 2 (ΔT=15 to <20° C.=good) | 15.9 °C | 2 (ΔT=15 to <20° C.=good) | 47.0 °C | 1 (ΔT=>40° C.=very good) |
| O=C([O-])CC(O)(CC(=O)[O-])C(=O)[O-].O=C([O-])CC(O)(CC(=O)[O-])C(=O)[O-].[Ca+2].[Ca+2].[Ca+2] [TCC, Tricalcium citrate] | 14.2 10^−3 cm^3/g | – | – | – | – | 28.6 °C | 2 (ΔT=25 to 40° C.=good) |
| O=P([O-])([O-])OP(=O)([O-])[O-].[Na+].[Na+].[Na+].[Na+] [TSPP, Tetrasodium pyrophosphate] | 3.3 10^−3 cm^3/g | – | – | – | – | 40.8 °C | 1 (ΔT=>40° C.=very good) |
| O=P([O-])([O-])OP(=O)([O-])[O-].[Mg+2].[Mg+2] [MgPP, Magnesium pyrophosphate] | 7.1 10^−3 cm^3/g | 15.2 °C | 2 (ΔT=15 to <20° C.=good) | 19.1 °C | 2 (ΔT=15 to <20° C.=good) | 45.8 °C | 1 (ΔT=>40° C.=very good) |
| O.O=P([O-])(O)O.O=P([O-])(O)O.[Ca+2] [MCPM, Monocalcium phosphate monohydrate] | 23 10^−3 cm^3/g | – | – | – | – | 32.5 °C | 2 (ΔT=25 to 40° C.=good) |
| Ammonium molybdate [AmMD(V), reference compound] | 2.6 10^−3 cm^3/g | – | – | – | – | 24.2 °C | 3 (ΔT=<25° C.=no additional activity) |
| O.O.O=P([O-])([O-])[O-].O=P([O-])([O-])[O-].[Zn+2].[Zn+2].[Zn+2] [TZP, Trizinc phosphate dihydrate] | 6.3 10^−3 cm^3/g | – | – | – | – | 38.0 °C | 2 (ΔT=25 to 40° C.=good) |
| O=P([O-])(O)O.O=P([O-])(O)O.[Ca+2] [MCPA(V), Monocalcium phosphate anhydrate, reference compound] | 2.3 10^−3 cm^3/g | – | – | – | – | 17.0 °C | 3 (ΔT=<25° C.=no additional activity) |
| O=P([O-])([O-])[O-].O=P([O-])([O-])[O-].[Ca+2].[Ca+2].[Ca+2] [TCP, Tricalcium phosphate] | 120 10^−3 cm^3/g | – | – | – | – | 36.2 °C | 2 (ΔT=25 to 40° C.=good) |
| O=S(=O)([O-])[O-].O=S(=O)([O-])[O-].[Al+3].[Na+] [SAS, Acid sodium aluminium sulphate] | 3.9 10^−3 cm^3/g | – | – | – | – | 39.6 °C | 2 (ΔT=25 to 40° C.=good) |
| O=C([O-])[O-].[Ca+2] [CaCO3, Calcium carbonate] | 9.0 10^−3 cm^3/g | – | – | – | – | 31.5 °C | 2 (ΔT=25 to 40° C.=good) |
| O.O.O.O.O=P([O-])([O-])[O-].O=P([O-])([O-])[O-].[Mg+2].[Mg+2].[Mg+2] [TMP, Trimagnesium phosphate tetrahydrate] | 16 10^−3 cm^3/g | – | – | – | – | 41.0 °C | 1 (ΔT=>40° C.=very good) |
| Calcium gluconate [CaGl] | 10.0 10^−3 cm^3/g | – | – | – | – | 36.6 °C | 2 (ΔT=25 to 40° C.=good) |
| O=P([O-])([O-])OP(=O)([O-])[O-].[Cu+2].[Cu+2] [CuPP, Copper-II pyrophosphate] | 12 10^−3 cm^3/g | – | – | – | – | 37.9 °C | 2 (ΔT=25 to 40° C.=good) |
